Assay [1] deals with Nociceptin receptor (Rattus norvegicus) (UniProt P35370). Put plainly: Relative potency, ratio of wild type nociceptin EC50 to compound EC50 for stimulation of [35S]GTPgammaS binding to rat ORL1 receptor expressed in african green monkey COS7 cells. Particulars: COS-7. The assay is classed as functional, cell-based.
The target is the same in assay [2]. Put plainly: Relative potency, ratio of wild type nociceptin IC50 to compound IC50 for rat ORL1 receptor expressed in african green monkey COS7 cells. Particulars: COS-7. Type of assay: cell-based.
Assay [3] has as its target T1, Nociceptin receptor (Rattus norvegicus, UniProt P35370). Put plainly: Agonist activity at rat ORL1 receptor expressed in african green monkey COS7 cells assessed as stimulation of [35S]GTPgammaS binding by radioligand receptor-binding assay. The assay is classed as functional, cell-based, COS-7.
Assay [4] deals with T1, Nociceptin receptor. Put plainly: Displacement of [3H]nociceptin from rat ORL1 receptor expressed in african green monkey COS7 cells by competitive binding assay. The assay is classed as cell-based, COS-7. On the technique in general: Displacement assays read how much labelled ligand stays bound in the presence of the test substance.

Experimental findings from ChEMBL document CHEMBL1153068, “Discriminatory synergistic effect of Trp-substitutions in superagonist [(Arg/Lys)(14), (Arg/Lys)(15)]nociceptin on ORL1 receptor binding and activation” (Bioorg Med Chem, 2009) are described below.

The term EC50 denotes the concentration at which the effect is half-maximal. What is called IC50 is the point on the concentration scale where inhibition reaches its midpoint.

Nociceptin receptor (Rattus norvegicus), sequence (P35370 whole entry): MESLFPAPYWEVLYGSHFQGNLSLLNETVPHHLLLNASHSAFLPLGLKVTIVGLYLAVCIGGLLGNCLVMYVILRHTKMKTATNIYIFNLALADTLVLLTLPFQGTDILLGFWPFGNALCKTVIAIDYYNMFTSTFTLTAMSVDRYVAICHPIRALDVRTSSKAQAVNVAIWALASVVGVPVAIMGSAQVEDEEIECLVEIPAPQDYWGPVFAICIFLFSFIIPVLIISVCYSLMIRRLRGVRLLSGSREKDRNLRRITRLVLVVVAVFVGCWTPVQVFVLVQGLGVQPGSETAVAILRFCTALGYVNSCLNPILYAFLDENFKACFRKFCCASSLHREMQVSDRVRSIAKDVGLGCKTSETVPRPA
T1 sequence (P35370 whole entry): as above

In the case of `C[C@H](NC(=O)CNC(=O)[C@@H](NC(=O)[C@H](Cc1ccccc1)NC(=O)CNC(=O)CNC(=O)[C@@H](N)Cc1ccccc1)[C@@H](C)O)C(=O)N[C@@H](CCCNC(=N)N)C(=O)N[C@@H](CCCCN)C(=O)N[C@@H](CO)C(=O)N[C@@H](C)C(=O)N[C@@H](CCCNC(=N)N)C(=O)N[C@@H](CCCCN)C(=O)N[C@@H](CCCNC(=N)N)C(=O)N[C@@H](CCCCN)C(=O)N[C@@H](CC(N)=O)C(=O)N[C@@H](CCC(N)=O)C(=O)O`, in assay [1], the Ratio EC50 was 11.8. For the same compound, the Ratio IC50 in assay [2] amounted to 3.48.
On to H-FGGFTGARKSARKKWNQ-OH, for which the Ratio EC50 in assay [1] is 4.06. In assay [2], the Ratio IC50 was 2.35. Further, the EC50 on Nociceptin receptor [3] was 3.2 nM. The half-inhibitory concentration (IC50) on Nociceptin receptor [4] came to 0.31 nM.
Take H-FGGFTGARKSARKLWNQ-OH: in assay [1], the Ratio EC50 was found to be 0.26. Moreover, in assay [2], the Ratio IC50 is 0.35.
For the compound H-FGGFTGARKSARKRWNQ-OH, in assay [1], the Ratio EC50 was found to be 4.19. Moreover, the Ratio IC50 in assay [2] is 2.43. In addition, the EC50 at Nociceptin receptor [3] was found to be 3.1 nM. This compound registered an IC50 at Nociceptin receptor [4] of 0.3 nM.
With H-FGGFTGARKSARKWANQ-OH, the Ratio EC50 in assay [1] worked out at 2.24. Moreover, the Ratio IC50 in assay [2] amounted to 1.78.
Consider “H-FGGFTGARKSARKWKNQ-OH [listing 1 of 2 here]”, for which the EC50 at Nociceptin receptor [3] came out at 1.3 nM. Also, at Nociceptin receptor [4], the IC50 amounted to 0.25 nM.
For the compound “H-FGGFTGARKSARKWKNQ-OH [listing 2 of 2 here]”, the Ratio EC50 in assay [1] is 10. Moreover, in assay [2], the Ratio IC50 worked out at 2.92.
For the compound H-FGGFTGARKSARKWRNQ-OH, in assay [1], the Ratio EC50 stood at 10. Moreover, the Ratio IC50 in assay [2] is 3.17. The EC50 at Nociceptin receptor [3] came to 1.3 nM. The IC50 at Nociceptin receptor [4] amounted to 0.23 nM.
